According to patent US10258599B2, “Compounds for use in the prevention or treatment of cancer” (SEMMELWEIS UNIVERSITY, priority 2014, dated 2019):

Tests used:
[1] = test system: male Wistar rats (Charles River); assay: Longevity study: survival of rats treated 3 times a week s.c.; format: in vivo, rat
Experimental: Experiments were carried out on male Wistar rats (Charles River) weighing 250-350 g received from the breeding colony of Semmelweis University. The animals were kept in a 12-hour light-dark cycle and under condition of controlled temperature (22±2° C.) and relative humidity (55±5%). Room temperature and relative humidity was checked daily. The rats were maintained on standard laboratory chow and tap water ad libitum. All procedures conformed to the European Convention for the protection of vertebrate animals used for experimental and other scientific purposes. The study was approved by the Animal Ethics Committee of Semmelweis University, Budapest (permission number: 1810/003/2004)
The longevity study was performed on 200 male rats received from the breeding colony of the Semmelweis University. The rats were born at the end of February of 2010. After 2-month acclimation period the rats were divided randomly into 5 even groups. The longevity study started at the beginning of May 2010. Animals were observed until their natural deaths. The data in this study represent the changes observed until Oct. 31, 2012, since in the saline-treated group the last animal died on Oct. 31, 2012. As will be shown later a few rats in the enhancer-treated groups were still alive on Nov. 1, 2012.
During the longevity study 5 rats were housed together in polycarbonate cages (height: 18 cm; wide: 42 cm; length: 44 cm) with a stainless steel on the top. Cage bedding was renewed 3 times a week (Monday, Wednesday and Friday). Bodyweight was measured once every month. The treatment started at the end of the second month of their age.
To avoid the mixing of the groups and individuals, saline-treated rats were signed blue from 1 to 40; D-treated rats were signed green from 1 to 80 (1-40: rats treated with 0.1 mg/kg and 41-80: rats treated with 0.001 mg/kg); B-treated rats were signed black from 1 to 80 (1-40: rats treated with 0.05 mg/kg and 41-80: rats treated with 0.0001 mg/kg).
Significance in the performance between the groups in the shuttle box was evaluated by multi-factor analysis of variance (ANOVA). Significance regarding the span of time from tumor manifestation until death in rats and regarding aging related changes in bodyweight treated chronically with the enhancer substances was analyzed by One-way ANOVA. Statistical analysis of survival rate and tumor manifestation was performed by the Kaplan-Meier method.

[2] = test system: mouse colon carcinoma cells (C38); assay: Mouse colon carcinoma (C38) spleen inoculation, liver metastasis; format: in vivo; settings: 0.0001 mg/kg s.c. daily from one week before inoculation, day 23, p<0.05
Experimental: In this study 30.000 mouse colon carcinoma cells (C38) were inoculated into the spleen of C57BI/6 mice and macroscopic liver metastasis observed on day 23 after inoculation. In the experiment a group of mice pretreated daily subcutaneously for one week with 0.0001 mg/kg BPAP prior to the inoculation of 30.000 cells/animal and further treated until the end of the experiment (23rd day) whereas the control animals have not received BPAP.

[3] = test system: isolated locus coerulei of rats; assay: Norepinephrine release from isolated locus coerulei in organ bath; set-up: species or system rat; settings: released within 20 min (FIG. 18)
Experimental: In this study (−)-BPAP was given to the organ bath of the quickly removed locus coerulei of rats. Eight organs were used for the analysis of each concentration. The amount of norepinephrine released within 20 min from the tissue in the presence of different concentrations of (−)-BPAP was measured according to Knoll and Miklya (1995) (Paired Student's t-test. *P<0.01, **P<0.001.)

MAO-B = molecular target: T1, MAO-B (Rattus norvegicus, UniProt P19643); settings: in vivo; cited from earlier work
T1 construct: from tissue; host or cells: brain, in vivo dosing
T1 sequence (P19643 1-520): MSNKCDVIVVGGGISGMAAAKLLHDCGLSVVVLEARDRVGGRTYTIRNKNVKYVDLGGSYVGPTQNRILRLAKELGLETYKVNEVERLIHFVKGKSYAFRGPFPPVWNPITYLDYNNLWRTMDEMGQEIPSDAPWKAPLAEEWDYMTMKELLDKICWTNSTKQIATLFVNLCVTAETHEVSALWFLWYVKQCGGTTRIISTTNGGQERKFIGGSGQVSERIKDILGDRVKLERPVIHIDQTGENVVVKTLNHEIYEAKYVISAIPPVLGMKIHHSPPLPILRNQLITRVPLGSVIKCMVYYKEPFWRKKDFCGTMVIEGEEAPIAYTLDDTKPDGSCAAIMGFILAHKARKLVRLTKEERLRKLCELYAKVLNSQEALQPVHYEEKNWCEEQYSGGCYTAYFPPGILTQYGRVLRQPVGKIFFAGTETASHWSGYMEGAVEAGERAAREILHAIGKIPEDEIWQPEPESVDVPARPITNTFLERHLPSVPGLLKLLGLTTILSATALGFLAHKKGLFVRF

Daoy HTB-186 cell line = assay: MTT proliferation assay, Daoy medulloblastoma cells; format: cell-based, human; settings: for proliferation of cultured medulloblastoma cells: monotherapy, nine concentrations 10^-14 to 10^-6 M, 72 hours
Experimental: Human medulloblastoma cell line, Daoy was purchased from ATCCC, UW-228 was obtained from the courtesy of Professor Silber (Univerity of Washington, Seattle, Wash., USA).
Daoy and UW-228-2 cell lines were maintained in culture medium (each 500 ml Minimum Essential Medium Eagle, Alpha Modification (M8042, Sigma, St Louis, USA) with 50 ml FCS (Gibco), 40 mg Gentamicin (Sandoz), 5 ml sodium-pyruvate (S8636, Sigma, St Louis, USA), 5 ml non-essential-amino acid solution (M7145, Sigma, St Louis, USA), 10 ml L-glutamin (Sigma, St Louis, USA) at 37° C. in humified 5% CO2.
In each well 3×10^3 Daoy or UW-228-2 cells were seeded in 96-well plates (Sarstedt), solved in 100 μl of its own medium with 10% FCS. 24 hours after seeding, cells were treated for 72 hours by drugs solved in further 100 μl medium. First, both cell lines were treated by (−)-BPAP and (−)-deprenil in monotherapy to determine its dose-effect curves in concentration of 10^−6, 10^−7, 10^−8, 10^−9, […], 10^−11, 10^−12, 10^−13 and 10^−14 M. In combined treatment 10^−3, 3.3×10^−4, […] and 3.7×10^−5 M of temozolomide (Schering Plough, USA) or 0.04, 0.2, 1, 5 μM of Cisplatin (Ebewe Pharma, Austria) or 0.04, 0.2, 1, 5 μM of etoposide (Ebewe Pharma, Austria) or 10^−7, 10^−6, 10^−5 and 10^−4 μM (UW228-2) or 0.001, 0.005, 0.025 and 0.125 μM (Daoy) of Vincristin (Richter Gedeon, Hungary) were applied in monotherapy or combined with 10^−13 or 10^−8 M of (−)-BPAP or (−)-deprenil.
Cell proliferation was evaluated by MTT (3-(4,5-Dimethylthiazol-2-yl)-2,5-diphenyltetrazolium bromide) assay (M5655, Sigma) after 72-hour treatment by the method described in manufacturer's protocol.

CCCN[C@H](CCC)Cc1cc2ccccc2o1 [(−)-BPAP, (2R)-1-(1-benzofuran-2-yl)-N-propylpentane-2-amine]
lifespan compared with saline-treated peers ([1]; 0.0001 mg/kg 3 times a week, P<0.05): lived significantly longer | month of age in which the first animal died ([1]; 0.0001 mg/kg s.c. 3 times a week, N=40): 16 month | rats remained alive to the end of the 32nd month ([1]; 0.0001 mg/kg, N=40, listed as BPAP): one and One | month of age in which the first animal died ([1]; 0.05 mg/kg s.c. 3 times a week, N=40): 14 month | lifespan compared with saline-treated peers ([1]; both doses of the longevity study (FIGS. 5-8)): significantly longer | number of macroscopic liver metastasis [2]: 2 tumors/liver | concentration effect curve of norepinephrine release [3]: bi-modal, bell-shaped | MAO-B inhibitory potency (MAO-B): devoid of MAO-B inhibitory potency | effectiveness of tumor-cell proliferation inhibiting agents in combination (Daoy HTB-186 cell line; 10^-13 or 10^-8 M combined with temozolomide, Cisplatin, etoposide or Vincristin): did not change the effectiveness | proliferation of cultured medulloblastoma cells (Daoy HTB-186 cell line): did not inhibit the proliferation | proliferation of cultured medulloblastoma cells (Daoy HTB-186 cell line; listed as BPAP): none of the applied concentrations did Deprenyl or BPAP influence the proliferation
